Drawing on patent US9738655B2, “Tetrahydroisoquinolines containing substituted azoles as factor XIa inhibitors” (BRISTOL-MYERS SQUIBB COMPANY, priority 2013, dated 2017), this text covers Ki for 17 compounds.

The target of experiment [1] is purified human plasma kallikrein (Homo sapiens (Human), UniProt P03952). The experiment can be described thus: Plasma kallikrein enzyme inhibition assay (chromogenic substrate S-2302). Type of experiment: biochemical.
Experimental: The effectiveness of compounds of the present invention as inhibitors of the coagulation Factors XIa, VIIa, IXa, Xa, XIIa, plasma kallikrein or thrombin, can be determined using a relevant purified serine protease, respectively, and an appropriate synthetic substrate. The rate of hydrolysis of the chromogenic or fluorogenic substrate by the relevant serine protease was measured both in the absence and presence of compounds of the present invention. […] A decrease in the rate of absorbance or fluorescence change in the presence of inhibitor is indicative of enzyme inhibition. […] The results of this assay are expressed as the inhibitory constant, Ki.
Values of Ki were determined by allowing the protease to react with the substrate in the presence of the inhibitor.
The following relationships were used to calculate Ki values: (Vmax*S)/(Km+S); (vo−vs)/vs=I/(Ki(1+S/Km)) for a competitive inhibitor with one binding site; or vs/vo=A+((B−A)/1+((IC50/(I)n))); and Ki−IC50/((1+S/Km) for a competitive inhibitor where:
Experiment [2] deals with purified human Factor XIa (Homo sapiens (Human), UniProt P03951). The experiment can be described thus: Factor XIa enzyme inhibition assay (chromogenic substrate S-2366).
Chain of purified human Factor XIa (P03951 388-625): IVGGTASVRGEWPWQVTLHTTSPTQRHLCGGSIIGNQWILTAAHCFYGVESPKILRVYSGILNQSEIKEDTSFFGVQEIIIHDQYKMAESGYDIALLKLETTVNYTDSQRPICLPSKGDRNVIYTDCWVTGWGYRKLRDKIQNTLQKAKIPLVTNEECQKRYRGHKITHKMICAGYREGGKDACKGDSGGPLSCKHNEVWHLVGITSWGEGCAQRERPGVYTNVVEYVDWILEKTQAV
Chain of purified human Factor XIa (P03951 19-387 partner): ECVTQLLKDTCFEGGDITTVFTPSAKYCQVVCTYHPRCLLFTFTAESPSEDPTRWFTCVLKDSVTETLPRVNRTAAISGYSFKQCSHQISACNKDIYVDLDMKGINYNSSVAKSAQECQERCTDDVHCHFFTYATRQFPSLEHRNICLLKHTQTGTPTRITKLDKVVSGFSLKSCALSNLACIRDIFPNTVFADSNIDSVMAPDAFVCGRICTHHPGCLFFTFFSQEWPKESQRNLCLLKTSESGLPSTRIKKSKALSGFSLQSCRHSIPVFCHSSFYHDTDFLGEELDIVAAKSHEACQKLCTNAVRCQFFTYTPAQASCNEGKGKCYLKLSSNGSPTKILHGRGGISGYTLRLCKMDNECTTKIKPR
Setting [3] is: measured at 25° C. (no asterisk).
Where [4] appears, read: read-out: Factor XIa Ki, measured at 25° C.

Counter-ions that a name gives are not always drawn. Like-named read-outs stand apart in the source and are kept apart here. Bounds are passed on as bounds.

Chain of purified human plasma kallikrein (P03952 391-638): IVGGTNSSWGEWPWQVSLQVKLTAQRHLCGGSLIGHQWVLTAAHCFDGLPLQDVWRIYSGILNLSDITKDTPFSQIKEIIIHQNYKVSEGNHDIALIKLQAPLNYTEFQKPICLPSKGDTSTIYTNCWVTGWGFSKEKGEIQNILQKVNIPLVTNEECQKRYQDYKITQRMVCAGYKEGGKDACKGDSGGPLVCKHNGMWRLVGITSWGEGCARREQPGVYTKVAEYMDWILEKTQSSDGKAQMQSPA
Chain of purified human plasma kallikrein (P03952 20-390 partner): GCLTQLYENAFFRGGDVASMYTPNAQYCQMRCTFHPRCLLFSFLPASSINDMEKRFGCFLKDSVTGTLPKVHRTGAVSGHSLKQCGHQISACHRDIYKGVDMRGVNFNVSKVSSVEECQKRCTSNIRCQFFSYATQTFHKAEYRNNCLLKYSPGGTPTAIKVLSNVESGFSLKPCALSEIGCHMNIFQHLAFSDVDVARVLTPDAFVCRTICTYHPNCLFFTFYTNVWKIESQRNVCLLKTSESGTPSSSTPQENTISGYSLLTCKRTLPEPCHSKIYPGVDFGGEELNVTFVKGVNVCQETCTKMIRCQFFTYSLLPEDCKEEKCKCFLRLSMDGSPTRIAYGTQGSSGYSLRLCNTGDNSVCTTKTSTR

The Ki is the equilibrium dissociation constant of an inhibitor or competing ligand from its target. On to `N#Cc1ccc(-c2cccc3c2CCN(C(=O)c2cn(-c4cccc(Cl)c4F)nn2)[C@@H]3C(=O)Nc2ccc(C(=O)O)cc2)cn1` [Example 16, (S)-4-(2-(1-(3-Chloro-2-fluorophenyl)-1H-1,2,3-triazole-4-carbonyl)-5-(6-cyanopyridin-3-yl)-1,2,3,4-tetrahydroisoquinoline-1-carboxamido)benzoic acid, TFA salt], for which the figures for the Ki in experiment [1] (setting [3]) and in experiment [2] (setting [4]) were 4.55 nM and < 5 nM, respectively.

For `COC1CCN(c2cccc3c2CCN(C(=O)c2cn(-c4cccc(Cl)c4F)nn2)C3C(=O)Nc2ccccc2)CC1` (stereo not shown) [Example 118, 2-(1-(3-Chloro-2-fluorophenyl)-1H-1,2,3-triazole-4-carbonyl)-5-(4-methoxypiperidin-1-yl)-N-phenyl-1,2,3,4-tetrahydroisoquinoline-1-carboxamide, TFA salt], the values for the Ki in experiment [1] (measured at 37° C. (*)) and in experiment [2] (setting [4]) were 250 nM and 38 nM, respectively.

Consider `CN1CCN(c2cccc3c2CCN(C(=O)c2cn(-c4cccc(Cl)c4F)nn2)[C@@H]3C(=O)Nc2ccc(C(=O)O)cc2)CC1=O` [Example 287, (S)-4-(2-(1-(3-chloro-2-fluorophenyl)-1H-1,2,3-triazole-4-carbonyl)-5-(4-methyl-3-oxopiperizin-1-yl)-1,2,3,4-tetrahydroisoquinoline-1-carboxamido)benzoic acid, TFA salt], for which the Ki is 1.82 nM in experiment [1] (setting [3]) and < 5 nM in experiment [2] (setting [4]).

On to `COCCOc1cccc2c1CCN(C(=O)c1cn(-c3cccc(Cl)c3F)nn1)C2C(=O)Nc1ccc(C(=O)O)cc1` (stereo not shown) [Example 113, 4-(2-(1-(3-Chloro-2-fluorophenyl)-1H-1,2,3-triazole-4-carbonyl)-5-(2-methoxyethoxy)-1,2,3,4-tetrahydroisoquinoline-1-carboxamido)benzoic acid], for which the Ki in experiment [1] (setting [3]) was 11.9 nM; in experiment [2] it was < 5 nM.

Regarding `CN(C)C(=O)C1CCN(c2cccc3c2CCN(C(=O)c2cnn(-c4cccc(Cl)c4F)c2)[C@H]3C(=O)Nc2ccc(C(=O)O)cc2)CC1` (single isomer, unassigned) [Example 60, TFA salt], the Ki came to 698 nM in experiment [1] (setting [3]) and 47.8 nM in experiment [2] (setting [4]).

With `CC(C)c1nnc2n1CCN(c1cccc3c1CCN(C(=O)c1cn(-c4cccc(Cl)c4F)nn1)[C@H]3C(=O)Nc1ccc(C(=O)O)cc1)C2` [Example 65, (R)-4-(2-(1-(3-chloro-2-fluorophenyl)-1H-1,2,3-triazole-4-carbonyl)-5-(3-isopropyl-5,6-dihydro-[1,2,4]triazolo[4,3-a]pyrazin-7(8H)-yl)-1,2,3,4-tetrahydroisoquinoline-1-carboximido)benzoic acid, TFA salt], the inhibition constant Ki in experiment [1] (setting [3]) was 260 nM; in experiment [2] (setting [4]), 18.9 nM.

`COC1CCN(c2cccc3c2CCN(C(=O)c2coc(-c4cccc(Cl)c4F)n2)C3C(=O)Nc2ccc(C(=O)O)cc2)CC1` (racemic) [Example 310, 4-(2-(2-(3-chloro-2-fluorophenyl)oxazole-4-carbonyl)-5-(4-methoxypiperidin-1-yl)-1,2,3,4-tetrahydroisoquinoline-1-carboxamido)benzoic acid, TFA salt]: the inhibition constant (Ki) in experiment [1] (setting [3]) worked out at 610 nM; in experiment [2], 82 nM.

Regarding `O=C(Nc1ccc(-c2cc[nH]n2)cc1)C1c2cccc(-c3cncnc3)c2CCN1C(=O)c1cn(-c2cccc(Cl)c2F)nn1` (stereo not shown) [Example 127, N-(4-(1H-pyrazol-3-yl)phenyl)-2-(1-(3-chloro-2-fluorophenyl)-1H-1,2,3-triazole-4-carbonyl)-5-(pyrimidin-5-yl)-1,2,3,4-tetrahydroisoquinoline-1-carboxamide, TFA salt], the Ki was 196 nM in experiment [1] (measured at 37° C. (*)) and < 5 nM in experiment [2] (setting [4]).

As for `COC1CN(c2cccc3c2CCN(C(=O)c2cn(-c4cccc(Cl)c4F)nn2)C3C(=O)Nc2ccc(C(=O)O)cc2)C1` (stereo not shown) [Example 83, 4-(2-(1-(3-chloro-2-fluorophenyl)-1H-1,2,3-triazole-4-carbonyl)-5-(3-methoxyazetidin-1-yl)-1,2,3,4-tetrahydroisoquinoline-1-carboxamido)benzoic acid, TFA salt], the inhibition constant (Ki) in experiment [1] (setting [3]) is 12.1 nM; in experiment [2] (setting [4]), < 5 nM.

Regarding `COC1CCN(c2cccc3c2CCN(C(=O)c2nnn(-c4cccc(Cl)c4F)c2C)C3C(=O)Nc2ccc(C(=O)O)cc2)CC1` (racemic) [Example 253, 4-(2-(1-(3-chloro-2-fluorophenyl)-5-methyl-1H-1,2,3-triazole-4-cabonyl)-5-(4-methoxypiperidin-1-yl)-1,2,3,4-tetrahydroisoquinoline-1-carboxamido)benzoic acid, TFA salt], the inhibition constant Ki in experiment [1] (setting [3]) was 156 nM; in experiment [2] it was 11.1 nM.

Take `COC1CCN(c2cccc3c2CCN(C(=O)C2CC(=O)N(c4c(F)ccc(Cl)c4F)C2)C3C(=O)Nc2ccc(C(=O)O)cc2)CC1` (stereo not shown) [Example 71, 4-(2-(1-(3-chloro-2,6-difluorophenyl)-5-oxopyrrolidine-3-carbonyl)-5-(4-methoxypiperidin-1-yl)-1,2,3,4-tetrahydroisoquinoline-1-carboxamido)benzoic acid, TFA salt]: the inhibition constant Ki in experiment [1] (measured at 37° C. (*)) was > 6000 nM; in experiment [2] (setting [4]) it was 913 nM.

For `O=C(O)c1ccc(NC(=O)[C@H]2c3cccc(N4CCN(CC(F)(F)F)CC4)c3CCN2C(=O)[C@H]2CC(c3cccc(Cl)c3F)=NO2)cc1` [Example 231, 4-((R)-2-((R)-3-(3-Chloro-2-fluorophenyl)-4,5-dihydroisoxazole-5-carbonyl)-5-(4-(2,2,2-trifluoroethyl)piperazin-1-yl)-1,2,3,4-tetrahydroisoquinoline-1-carboxamido)benzoic acid, 2 TFA salt], the inhibition constant (Ki) came out at 1290 nM in experiment [1] (measured at 37° C. (*)) and 136 nM in experiment [2] (setting [4]).

With `O=C(Nc1ccc(-c2ncc[nH]2)cc1)[C@H]1c2cccc(-c3cncnc3)c2CCN1C(=O)[C@H]1CC(c2cccc(Cl)c2F)=NO1` [Example 135, (R)-N-(4-(1H-imidazol-2-yl)phenyl)-2-((R)-3-(3-chloro-2-fluorophenyl)-4,5-dihydroisoxazole-5-carbonyl)-5-(pyrimidin-5-yl)-1,2,3,4-tetrahydroisoquinoline-1-carboxamide TFA salt], the inhibition constant Ki in experiment [1] (measured at 37° C. (*)) is 399 nM; in experiment [2] (setting [4]), < 5 nM.

With `CC(C)c1nnc2n1CCN(c1cccc3c1CCN(C(=O)[C@H]1CC(c4cccc(Cl)c4F)=NO1)[C@@H]3C(=O)Nc1ccc(C(=O)O)cc1)C2` [Example 336, 4-((S)-2-((R)-3-(3-Chloro-2-fluorophenyl)-4,5-dihydroisoxazole-5-carbonyl)-5-(3-isopropyl-5,6-dihydro-[1,2,4]triazolo[4,3-a]pyrazin-7(8H)-yl)-1,2,3,4-tetrahydroisoquinoline-1-carboxamido)benzoic acid, TFA salt], the figures for the Ki in experiment [1] (measured at 37° C. (*)) and in experiment [2] (setting [4]) were 1.4 nM and < 5 nM, respectively.

With `COC1CCN(c2cccc3c2CCN(C(=O)c2cnn(-c4cccc(Cl)c4F)c2N)[C@@H]3C(=O)Nc2ccc(C(=O)O)cc2)CC1` [Example 285, (S)-4-(2-(5-amino-1-(3-chloro-2-fluorophenyl)-1H-pyrazole-4-carbonyl)-5-(4-methoxypiperidin-1-yl)-1,2,3,4-tetrahydroisoquinoline-1-carboxamido)benzoic acid, TFA salt], the values for the Ki in experiment [1] (setting [3]) and in experiment [2] (setting [4]) were 19.8 nM and < 5 nM, respectively.

Take `CN(C)C1CCN(c2cccc3c2CCN(C(=O)c2cn(-c4cccc(Cl)c4F)cn2)C3C(=O)Nc2ccc(C(=O)O)cc2)CC1` (stereo not shown) [Example 53, 4-(2-(1-(3-chloro-2-fluorophenyl)-1H-imidazole-4-carbonyl)-5-(4-(dimethylamino)piperidin-1-yl)-1,2,3,4-tetrahydroisoquinoline-1-carboxamido)benzoic acid, bis-TFA salt]: the inhibition constant Ki is 1.21 nM in experiment [1] (setting [3]) and < 5 nM in experiment [2] (setting [4]).

Take `CN(C)C(=O)C1CCN(c2cccc3c2CCN(C(=O)c2cnn(-c4cccc(Cl)c4F)c2)C3C(=O)Nc2ccc(C(=O)O)cc2)CC1` (stereo not shown) [Example 59, 4-(2-(1-(3-chloro-2-fluorophenyl)-1H-pyrazole-4-carbonyl)-5-(4-(dimethylcarbamoyl)piperidin-1-yl)-1,2,3,4-tetrahydroisoquinoline-1-carboxamido)benzoic acid, TFA salt]: the inhibition constant (Ki) in experiment [1] (setting [3]) is 10.1 nM; in experiment [2] (setting [4]) it was < 5 nM.
